Test results from patent US10736883B2, “Triazole furan compounds as agonists of the APJ receptor” (AMGEN INC., priority 2016, dated 2020).

Biological target: APJ receptor (Homo sapiens (Human), UniProt P35414)
Test: [35S]GTPγS binding assay on membranes from CHO cells stably expressing human APJ receptor
Assay type: biochemical
Conditions: membranes of CHO cells stably expressing human APJ receptor, means of several independent experiments, read-out: Activity hAPJ SPA EC50 IP
In short: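 Membranes from CHO cells stably expressing human APJ were incubated with 0.2 nM [35S]GTPγS and ligands for 90 min at RT in 20 mM HEPES pH 7.5, 5 mM MgCl2, 200 mM NaCl, 3 μM GDP, 0.1% BSA with WGA PS beads. Nonspecific binding was set with 100 μM GTPγS. EC50 came from non-linear regression.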

APJ receptor, sequence (P35414 whole entry): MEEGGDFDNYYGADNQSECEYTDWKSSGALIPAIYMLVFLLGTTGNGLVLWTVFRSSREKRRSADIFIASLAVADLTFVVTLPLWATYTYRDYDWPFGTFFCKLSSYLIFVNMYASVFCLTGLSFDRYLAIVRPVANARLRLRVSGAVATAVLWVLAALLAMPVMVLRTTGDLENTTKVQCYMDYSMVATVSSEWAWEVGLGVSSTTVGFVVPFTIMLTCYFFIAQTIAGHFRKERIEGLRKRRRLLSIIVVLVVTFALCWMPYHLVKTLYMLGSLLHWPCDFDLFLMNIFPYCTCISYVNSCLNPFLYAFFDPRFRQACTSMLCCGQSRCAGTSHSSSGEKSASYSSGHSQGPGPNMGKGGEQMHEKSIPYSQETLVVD

| SMILES | EC50 |
| --- | --- |
| COc1cccc(OC)c1-n1c(NS(=O)(=O)[C@H]2C[C@@H](O)CN(c3ncc(F)cc3C#N)C2)nnc1-c1ccc(C)o1 (racemic) [Example 331.0, (3S,5R)-1-(3-Cyano-5-fluoropyridin-2-yl)-N-(4-(2,6-dimethoxyphenyl)-5-(5-methylfuran-2-yl)-4H-1,2,4-triazol-3-yl)-5-hydroxypiperidine-3-sulfonamide and (3R,5S)-1-(3-cyano-5-fluoropyridin-2-yl)-N-(4-(2,6-dimethoxyphenyl)-5-(5-methylfuran-2-yl)-4H-1,2,4-triazol-3-yl)-5-hydroxypiperidine-3-sulfonamide] | 450 pM |
| COc1cccc(OC)c1-n1c(NS(=O)(=O)[C@@H](C)Cc2ncc(F)c3[nH]cnc23)nnc1-c1ccco1 (single isomer, unassigned) [Example 5.0, (2S)—N-(4-(2,6-dimethoxyphenyl)-5-(2-furanyl)-4H-1,2,4-triazol-3-yl)-1-(7-fluoro-1H-imidazo[4,5-c]pyridin-4-yl)-2-propanesulfonamide or (2R)—N-(4-(2,6-dimethoxyphenyl)-5-(2-furanyl)-4H-1,2,4-triazol-3-yl)-1-(7-fluoro-1H-imidazo[4,5-c]pyridin-4-yl)-2-propanesulfonamide] | 950 pM |
| COc1cccc(OC)c1-n1c(NS(=O)(=O)[C@H](C)Cc2ncc(Cl)cc2NC(C)=O)nnc1-c1ccco1 (single isomer, unassigned) [Example 9.0, N-(5-chloro-2-((2R)-2-((4-(2,6-dimethoxyphenyl)-5-(2-furanyl)-4H-1,2,4-triazol-3-yl)sulfamoyl)propyl)-3-pyridinyl)acetamide or N-(5-chloro-2-((2S)-2-((4-(2,6-dimethoxyphenyl)-5-(2-furanyl)-4H-1,2,4-triazol-3-yl)sulfamoyl)propyl)-3-pyridinyl)acetamide] | 91 pM |
| COc1cccc(OC)c1-n1c(NS(=O)(=O)[C@@H](C)[C@@H](O)c2ccc(C#N)cn2)nnc1-c1ccc(C)o1 (single isomer, unassigned) [Example 10.0, (1S,2S)-1-(5-cyano-2-pyridinyl)-N-(4-(2,6-dimethoxyphenyl)-5-(5-methyl-2-furanyl)-4H-1,2,4-triazol-3-yl)-1-hydroxy-2-propanesulfonamide or (1R,2R)-1-(5-cyano-2-pyridinyl)-N-(4-(2,6-dimethoxyphenyl)-5-(5-methyl-2-furanyl)-4H-1,2,4-triazol-3-yl)-1-hydroxy-2-propanesulfonamide] | 110 pM |
| COc1cccc(OC)c1-n1c(NS(=O)(=O)[C@H](C)Cc2ccc(Cl)cn2)nnc1-c1ccco1 (single isomer, unassigned) [Example 11.0, (2R)-1-(5-chloro-2-pyridinyl)-N-(4-(2,6-dimethoxyphenyl)-5-(2-furanyl)-4H-1,2,4-triazol-3-yl)-2-propanesulfonamide or (2S)-1-(5-chloro-2-pyridinyl)-N-(4-(2,6-dimethoxyphenyl)-5-(2-furanyl)-4H-1,2,4-triazol-3-yl)-2-propanesulfonamide] | 140 pM |
| COc1cccc(OC)c1-n1c(NS(=O)(=O)[C@H](C)Cc2ccc(C#N)cn2)nnc1-c1ccc(C)o1 (single isomer, unassigned) [Example 12.0, (2R)-1-(5-cyano-2-pyridinyl)-N-(4-(2,6-dimethoxyphenyl)-5-(5-methyl-2-furanyl)-4H-1,2,4-triazol-3-yl)-2-propanesulfonamide or (2S)-1-(5-cyano-2-pyridinyl)-N-(4-(2,6-dimethoxyphenyl)-5-(5-methyl-2-furanyl)-4H-1,2,4-triazol-3-yl)-2-propanesulfonamide] | 150 pM |
| COc1cccc(OC)c1-n1c(NS(=O)(=O)[C@@H](C)Cc2ncc(C)cn2)nnc1-c1ccc(C)o1 (single isomer, unassigned) [Example 16.0, (2S)—N-(4-(2,6-dimethoxyphenyl)-5-(5-methyl-2-furanyl)-4H-1,2,4-triazol-3-yl)-1-(5-methyl-2-pyrimidinyl)-2-propanesulfonamide or (2R)—N-(4-(2,6-dimethoxyphenyl)-5-(5-methyl-2-furanyl)-4H-1,2,4-triazol-3-yl)-1-(5-methyl-2-pyrimidinyl)-2-propanesulfonamide] | 220 pM |
| COc1cccc(OC)c1-n1c(NS(=O)(=O)[C@@H](C)Cc2ncc(Cl)cc2C(N)=O)nnc1-c1ccco1 (single isomer, unassigned) [Example 17.0, 5-chloro-2-((2S)-2-((4-(2,6-dimethoxyphenyl)-5-(2-furanyl)-4H-1,2,4-triazol-3-yl)sulfamoyl)propyl)-3-pyridinecarboxamide or 5-chloro-2-((2R)-2-((4-(2,6-dimethoxyphenyl)-5-(2-furanyl)-4H-1,2,4-triazol-3-yl)sulfamoyl)propyl)-3-pyridinecarboxamide] | 260 pM |

Second part, the compound after the results:

| EC50 | SMILES |
| --- | --- |
| 240 pM | COc1cccc(OC)c1-n1c(NS(=O)(=O)[C@H]2C[C@@H](O)CN(c3nc(C)cc(C)n3)C2)nnc1-c1ccc(C)o1 (racemic) [Example 326.0, (3S,5R)—N-(4-(2,6-Dimethoxyphenyl)-5-(5-methylfuran-2-yl)-4H-1,2,4-triazol-3-yl)-1-(4,6-dimethylpyrimidin-2-yl)-5-hydroxypiperidine-3-sulfonamide and (3R,5S)—N-(4-(2,6-dimethoxyphenyl)-5-(5-methylfuran-2-yl)-4H-1,2,4-triazol-3-yl)-1-(4,6-dimethylpyrimidin-2-yl)-5-hydroxypiperidine-3-sulfonamide] |
| 300 pM | COc1cccc(OC)c1-n1c(NS(=O)(=O)[C@H]2C[C@@H](O)CN(c3ncc(Cl)cn3)C2)nnc1-c1ccc(C)o1 (racemic) [Example 328.0, (3S,5R)-1-(5-Chloro-2-pyrimidinyl)-N-(4-(2,6-dimethoxyphenyl)-5-(5-methyl-2-furanyl)-4H-1,2,4-triazol-3-yl)-5-hydroxy-3-piperidinesulfonamide and (3R,5S)-1-(5-chloro-2-pyrimidinyl)-N-(4-(2,6-dimethoxyphenyl)-5-(5-methyl-2-furanyl)-4H-1,2,4-triazol-3-yl)-5-hydroxy-3-piperidinesulfonamide] |
| 380 pM | COc1cccc(OC)c1-n1c(NS(=O)(=O)[C@H]2C[C@@H](O)CN(c3ccc(F)c(C#N)c3)C2)nnc1-c1ccc(C)o1 (racemic) [Example 329.0, (3S,5R)-1-(3-Cyano-4-fluorophenyl)-N-(4-(2,6-dimethoxyphenyl)-5-(5-methyl-2-furanyl)-4H-1,2,4-triazol-3-yl)-5-hydroxy-3-piperidinesulfonamide and (3R,5S)-1-(3-cyano-4-fluorophenyl)-N-(4-(2,6-dimethoxyphenyl)-5-(5-methyl-2-furanyl)-4H-1,2,4-triazol-3-yl)-5-hydroxy-3-piperidinesulfonamide] |
| 450 pM | COc1cccc(OC)c1-n1c(NS(=O)(=O)[C@H]2C[C@@H](O)CN(c3ncc(F)cn3)C2)nnc1-c1ccc(C)o1 (racemic) [Example 332.0] |
| 450 pM | COc1cccc(OC)c1-n1c(NS(=O)(=O)[C@H]2C[C@@H](O)CN(c3cc(C#N)ccn3)C2)nnc1-c1ccc(C)o1 (racemic) [Example 333.0, (3S,5R)-1-(4-Cyanopyridin-2-yl)-N-(4-(2,6-dimethoxyphenyl)-5-(5-methylfuran-2-yl)-4H-1,2,4-triazol-3-yl)-5-hydroxypiperidine-3-sulfonamide and (3R,5S)-1-(4-cyanopyridin-2-yl)-N-(4-(2,6-dimethoxyphenyl)-5-(5-methylfuran-2-yl)-4H-1,2,4-triazol-3-yl)-5-hydroxypiperidine-3-sulfonamide] |
| 520 pM | COc1cnc(N2C[C@H](O)C[C@H](S(=O)(=O)Nc3nnc(-c4ccc(C)o4)n3-c3c(OC)cccc3OC)C2)nc1 (racemic) [Example 335.0, (3S,5R)—N-(4-(2,6-Dimethoxyphenyl)-5-(5-methylfuran-2-yl)-4H-1,2,4-triazol-3-yl)-5-hydroxy-1-(5-methoxypyrimidin-2-yl)piperidine-3-sulfonamide and (3R,5S)—N-(4-(2,6-dimethoxyphenyl)-5-(5-methylfuran-2-yl)-4H-1,2,4-triazol-3-yl)-5-hydroxy-1-(5-methoxypyrimidin-2-yl)piperidine-3-sulfonamide] |
| 300 pM | COc1cccc(OC)c1-n1c(NS(=O)(=O)[C@H](C)Cc2ncc(Cl)cc2C#N)nnc1-c1ccco1 (single isomer, unassigned) [Example 20.0, (2R)-1-(5-chloro-3-cyano-2-pyridinyl)-N-(4-(2,6-dimethoxyphenyl)-5-(2-furanyl)-4H-1,2,4-triazol-3-yl)-2-propanesulfonamide or (2S)-1-(5-chloro-3-cyano-2-pyridinyl)-N-(4-(2,6-dimethoxyphenyl)-5-(2-furanyl)-4H-1,2,4-triazol-3-yl)-2-propanesulfonamide] |
| 310 pM | CCN(CC)C(=O)c1cc(Cl)cnc1C[C@@H](C)S(=O)(=O)Nc1nnc(-c2ccco2)n1-c1c(OC)cccc1OC (single isomer, unassigned) [Example 21.0, 5-chloro-2-((2R)-2-((4-(2,6-dimethoxyphenyl)-5-(2-furanyl)-4H-1,2,4-triazol-3-yl)sulfamoyl)propyl)-N,N-diethyl-3-pyridinecarboxamide or 5-chloro-2-((2S)-2-((4-(2,6-dimethoxyphenyl)-5-(2-furanyl)-4H-1,2,4-triazol-3-yl)sulfamoyl)propyl)-N,N-diethyl-3-pyridinecarboxamide] |
| 360 pM | COc1cccc(OC)c1-n1c(NS(=O)(=O)[C@H](C)Cc2ccc(Br)cn2)nnc1-c1ccco1 (single isomer, unassigned) [Example 23.0, (2R)-1-(5-bromo-2-pyridinyl)-N-(4-(2,6-dimethoxyphenyl)-5-(2-furanyl)-4H-1,2,4-triazol-3-yl)-2-propanesulfonamide or (2S)-1-(5-bromo-2-pyridinyl)-N-(4-(2,6-dimethoxyphenyl)-5-(2-furanyl)-4H-1,2,4-triazol-3-yl)-2-propanesulfonamide] |
